Measurements published in EP0102213A1, “Ethanolamine derivatives, pharmaceutical compositions containing them, and processes for preparing them” (BEECHAM GROUP PLC, priority 1982, dated 1984).
Structures can show the parent of a compound that is named as a salt.

How the values were obtained:
left atrium = test: Cardiac activity: tension of the electrically paced isolated left atrium; design: species or system Sprague-Dawley male rats; conditions: rat left atrium; for Emax: intrinsic activity: maximal effect relative to isoprenaline maximum (isoprenaline = 1), read-out: Tension i.a.; for EC50: electrically paced, Krebs solution 32°C, concentration producing 50% of the compound's own maximum response
Protocol: (§1) Sprague-Dawley male rats (300-400 g) are killed and the right and left atria dissected out independently and mounted on a combined tissue holder/ electrode. The tissues are then immersed in a glass bath containing Krebs solution maintained at 32°C. The rate of the spontaneously beating right atrium (via an isometric transducer and a ratemeter) and the tension of the electrically paced left atrium (via an isometric transducer) are recorded on an Ml9 chart recorder.
(§2) After an initial stabilization period, the tissues are exposed to a maximal concentration of isoprenaline (10-^7M). The tissues are then washed several times until rate and tension return to baseline level. A dose-response curve to the test compound is then carried out.
(§3) Responses to each concentration of test compound are expressed as a percentage of the maximal responses to isoprenaline. Results are given in the form of (a) intrinsic activity (i.a.) (maximal effect of test compound with respect to isoprenaline maximum, i.e. isoprenaline intrinsic activity = 1) and (b) EC50 (the molar concentration at which the test compound produces 50% of its own maximum response).

right atrium = test: Cardiac activity: rate of the spontaneously beating isolated right atrium; design: species or system Sprague-Dawley male rats; conditions: rat right atrium; for Emax: intrinsic activity: maximal effect relative to isoprenaline maximum (isoprenaline = 1), read-out: Rate i.a.; for EC50: Krebs solution 32°C, concentration producing 50% of the compound's own maximum response
Protocol: as §1, §2, §3

Female CFLP mice = test: Hypoglycaemic activity: blood glucose after subcutaneous glucose load in fasted mice; assay type: in vivo; conditions: 24 h fasted female CFLP mice, glucose 1 g/Kg s.c. 30 min after dosing, 2 hour AUC versus water controls
Protocol: Female CFLP mice, weighing approximately 25 g, were fasted for 24 hours prior to the study. The compounds under study were administered orally as an aqueous solution to each of 6 mice. 30 minutes later a blood sample (10 ul) was obtained from the tail for the analysis of blood glucose. Immediately after taking this blood sample, glucose (lg/Kg body weight) was administered subcutaneously to each mouse. 6 mice were given water as a control. Blood samples were then obtained from each mouse at 30 minute intervals for 120 minutes.
Compounds that produced a significant (P<0.05) reduction of blood glucose, compared with control mice given water, at any time interval, were considered active. The area under the blood glucose curve over the 2 hour period after the administration of the glucose was calculated for each compound and compared with the value for control animals.

genetically obese mice = test: Anti-obesity activity: carcass lipid after daily oral gavage for 28 days; assay type: in vivo; conditions: carcass composition
Protocol: The compounds were administered by oral gavage in water or carboxymethyl-cellulose suspension to genetically obese mice daily for 28 days. At the end of the time the carcass composition was determined.

[1] = 13.4 mg/kg p.o. daily for 28 days

EC50 (right atrium)	EC50 (left atrium)	Structure (SMILES)	Emax (left atrium)	Emax (right atrium)	% Reduction in area under Blood Glucose Curve (Female CFLP mice; 2.5 μmol/Kg orally)	% Reduction in area under Blood Glucose Curve (Female CFLP mice; 12.5 μmol/Kg orally)	g LIPID/MOUSE TREATED (genetically obese mice; [1])	g LIPID/MOUSE TREATED (genetically obese mice; 11.9 mg/kg p.o. daily for 28 days)
170 nM		CC(Cc1ccc(OCCN2CCN(c3ccccc3)CC2)cc1)NCC(O)c1cccc(Cl)c1F (centres unmarked) [Example 7, N-[2-(4-(2-(1-(4-Phenyl)piperazinyl)ethoxy)phenyl)-1-methylethyl]-2-hydroxy-2-(2-fluoro-3-chlorophenyl)ethanamine trihydrochloride]	0%	35%				
		CC(Cc1ccc(OCCN2CCN(Cc3ccccc3)CC2)cc1)NCC(O)c1cccc(C(F)(F)F)c1 (centres unmarked) [Example 1, N-[2-(4-(2-(1-(4-Benzyl)piperazinyl)ethoxy)henyl)-1-methylethyl]-2-hydroxy-2-(3-trifluoromethylphenyl)ethanamine trihydrochloride]	0%	0%	38%			
350 nM	14 µM	CC(Cc1ccc(OCCN2CCN(c3ccccc3)CC2)cc1)NCC(O)c1ccccc1F (centres unmarked) [Example 6, N-[2-(4-(2-(1-(4-Phenyl)piperazinyl)ethox)phenyl)-1-methylethyl]-2-hydroxy-2-(2-fluorophenyl)ethanamine trihydrochloride]	28%	44%				
		COC(CNC(C)Cc1ccc(OCCN2CCN(c3ccccc3)CC2)cc1)c1cccc(Cl)c1 (centres unmarked) [Example 15, N-[2-(4-(2-(1-(4-Phenyl)piperazinyl)ethoxy)phenyl)-1-methylethyl]-2-methoxy-2-(3-chlorophenyl)ethanamine trihydrochloride]				47%		
		CC(Cc1ccc(OCCN2CCN(c3cccc(Cl)c3)CC2)cc1)NCC(O)c1cccc(C(F)(F)F)c1 (centres unmarked) [Example 8, N-[2-(4-(2-(1-(4-(3-Chlorophenyl))piperazinyl)ethoxy)-phenyl)-1-methylethyl]-2-hydroxy-2-(3-trifluoromethylphenyl)ethanamine trihydrochloride]					18.06 g	
		Br.Br.Br.CC(Cc1ccc(OCCN2CCNCC2)cc1)NCC(O)c1cccc(C(F)(F)F)c1 (centres unmarked) [Example 3, N-[2-(4-(2-(1-Piperazinyl)ethoxy)phenyl)-1-methylethyl]-2-hydroxy-2-(3-trifluoromethylphenyl)ethanamine trihydrobromide]			20%			
35 nM	45 µM	CC(Cc1ccc(OCCN2CCN(c3cccc(C(F)(F)F)c3)CC2)cc1)NCC(O)c1cccc(Cl)c1 (centres unmarked) [Example 13, N-[2-(4-(2-(1-(4-(3-Trifluoromethylphenyl))piperazinyl)-ethoxy)phenyl)-1-methylethyl]-2-hydroxy-2-(3-chlorophenyl) ethanamine trihydrochloride]	33%	7%			16.40 g	
		CC(Cc1ccc(OCCN2CCN(c3ccccc3)CC2)cc1)NCC(O)c1cccc(C(F)(F)F)c1 (centres unmarked) [Example 2, N-[2-(4-(2-(1-(4-Phenyl)piperazinyl)ethoxy)phenyl)-1-methylethyl]-2-hydroxy-2-(3-trifluoromethylphenyl)ethan-amine trihydrobromide]	0%		64%			
20000 nM	27 µM	CC(Cc1ccc(OCCN2CCN(c3ccc(Cl)cc3)CC2)cc1)NCC(O)c1cccc(C(F)(F)F)c1 (centres unmarked) [Example 10, N-[2-(4-(2-(1-(4-(4-Chlorophenyl))piperazinyl)ethoxy)-phenyl)-1-methylethyl]-2-hydroxy-2-(3-trifluoromethylphenyl)ethanamine trihydrochloride]	100%	86%				

Structure (SMILES)	EC50 (right atrium)	EC50 (left atrium)	Emax (left atrium)	Emax (right atrium)	% Reduction in area under Blood Glucose Curve (Female CFLP mice; 2.5 μmol/Kg orally)	% Reduction in area under Blood Glucose Curve (Female CFLP mice; 12.5 μmol/Kg orally)	g LIPID/MOUSE TREATED (genetically obese mice; [1])	g LIPID/MOUSE TREATED (genetically obese mice; 11.9 mg/kg p.o. daily for 28 days)
CC(Cc1ccc(OCCN2CCN(C)CC2)cc1)NCC(O)c1cccc(C(F)(F)F)c1 (centres unmarked) [Example 14, N-[2-(4-(2-(1-(4-Methyl)piperazinyl)ethoxy)henyl)-1-methylethyl]-2-hydroxy-2-(3-trifluoromethylphenyl) ethanamine trihydrochloride, monohydrate]	1700 nM		0%	4%				18.26 g
CC(Cc1ccc(OCCN2CCN(c3ccccc3)CC2)cc1)NCC(O)c1ccccc1 (centres unmarked) [Example 5, N-[2-(4-(2-(1-(4-Phenyl)piperazinyl)ethoxy)phenyl)-1-methylethyl]-2-hydroxy-2-phenylethanamine trihydrochloride]	540 nM	12 µM	67%	42%				
